Assay results reported in patent US9133117B2, “Triple reuptake inhibitors and methods of their use” (SUNOVION PHARMACEUTICALS INC., priority 2008, dated 2015).
“Also recorded” adds a separate entry of the source.

Columns and labels:
[1] = Brain and plasma levels following oral administration; assay type: in vivo; settings: 10 mg/kg
[2] = test system: formalin-induced flinching behavior; assay: Formalin pain model (flinching behavior); assay type: in vivo, rat; settings: 60 min before formalin
Procedure: Effects of (3aR,6aS)-3a-(3,4-Dichlorophenyl)octahydrocyclopenta[c]pyrrole on acute and persistent inflammatory pain were evaluated in male rats. Pain was induced experimentally by application of a chemical irritant, formalin, which results in a biphasic behavioral response that includes both early (Phase 1, 0-9 minutes) and late (Phase 2, 10-60 minutes) phase flinching behavior. The early phase response is considered to be the result of C-fiber activation while the late phase appears to be dependent on the combination of an inflammatory response in the tissue and functional changes in the dorsal horn of the spinal cord.
Male rats (Sprague-Dawley, 272-315 g, Harlan) were housed 4 animals per cage in a temperature-controlled environment on a 12-hour light-dark cycle with food and water available ad libitum. Animals were allowed to acclimate to the facility for at least 5 days before testing. On the day of the study, a flexible, light-weight, ‘C’-shaped metal band was applied to one hind paw and the rat was dosed orally (PO, 3 mL/kg, via gavage) or intraperitoneally (IP, 1 mL/kg) with vehicle (50 mM acetate buffer (pH 4.5)), (3aR,6aS)-3a-(3,4-dichlorophenyl)octahydrocyclopenta[c]pyrrole or gabapentin. […] Formalin-induced flinching behavior was recorded for 60 minutes.

| SMILES | levels of tested compounds in brain (order of lines in FIG. 1) [1] | ratio of brain and plasma levels (order of lines in FIG. 2) [1] | effect on formalin-induced flinching behavior (positive control) ([2]; male rats, 100 mg/kg IP) | effect on formalin-induced flinching behavior ([2]; male rats, 3, 10 and 30 mg/kg PO, phase I 0-9 min, phase II 10-60 min) |
| --- | --- | --- | --- | --- |
| CN1C[C@@H]2CCC[C@]2(c2ccc(Cl)c(Cl)c2)C1 [(3aS,6aR)-3a-(3,4-dichlorophenyl)-2-methyloctahydrocyclopenta[c]pyrrole] | third line | third line | – | – |
| NCC1(CC(=O)O)CCCCC1 [Gabapentin, reference compound] | – | – | significant and selective attenuation of phase II formalin-induced flinching behavior | – |
| Clc1ccc([C@@]23CCC[C@@H]2CNC3)cc1Cl [(3aR,6aS)-3a-(3,4-Dichlorophenyl)octahydrocyclopenta[c]pyrrole] | – | – | – | significant, dose-related decrease in flinching behavior during phases I and II; also recorded: significantly and dose-dependently attenuated formalin-induced flinching behavior in a non-selective manner |
| CN1C[C@@H]2CCCC[C@]2(c2ccc(Cl)c(Cl)c2)C1 [(3aS,7aR)-3a-(3,4-Dichlorophenyl)-2-methyloctahydro-1H-isoindole] | second line | top line | – | – |
| CN1C[C@H]2CCC[C@@]2(c2ccc(Cl)c(Cl)c2)C1 [(3aR,6aS)-3a-(3,4-dichlorophenyl)-2-methyloctahydrocyclopenta[c]pyrrole] | fourth line | fourth line | – | – |
| CN1C[C@H]2CCCC[C@@]2(c2ccc(Cl)c(Cl)c2)C1 [(3aR,7aS)-3a-(3,4-Dichlorophenyl)-2-methyloctahydro-1H-isoindole] | top line | second line | – | – |
